In article PMC13136073, “Discovery of 4‐Quinazolinone‐Containing Phenylalanine Derivatives as Potent, Resistant‐Tolerant HIV Capsid Inhibitors” (MedComm, 2026):

Experiment: Stability in human liver microsomes
Format: in vitro ADME
Conditions: HLM, scaled

CLint(liver): 200.0 mL/min/kg
SMILES: O=C(O)Cc1ccccc1Nc1c(Cl)cccc1Cl [Diclofenac, diclofenac]
